This series in a line: gradient 5% acetonitrile 3 min, to 50% in 2 min, to 85% in 15 min, held 3 min, 100 µL/min. The following applies: column: Zorbax Extend-C18 2.1 x 50 mm; eluents: water / acetonitrile, 0.1% formic acid. In a few lines: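 Pure standards were analyzed in mixtures of ~100 molecules using HPLC coupled to a quadrupole time-of-flight mass spectrometer, in both positive and negative ionization mode. Separation used a Zorbax Extend-C18 column (2.1 × 50 mm, 1.8 μm) at 100 μL/min, with water and acetonitrile each containing 0.1% formic acid. Dead and dwell volumes were 40 μL and 900 μL, and data were collected over 3 months. Retention time was read from computationally picked adduct peaks, each inspected manually.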
The compound `O=C(c1nc(-c2ccnc(N3CCCCC3)c2)no1)N1CCCC1` yielded an RP-LC retention time of 673 s.
To `O=C(NCc1ccccc1Cl)C1CCN(C(=O)c2sccc2-n2cccc2)CC1` belongs 863 s; to `Nc1nc(N2CCN(C3CCCCC3)CC2)ncc1C(=O)NCc1ccccc1F`, 629 s.
On to `Cc1cc(Cl)ccc1S(=O)(=O)N1CCC2(CC1)NCCCN=C2NC1CCCC1`, for which the RP-LC retention time came to 810 s.
To `OCC1CN(c2ncccn2)CC12CCN(Cc1ccc3cc[nH]c3c1)CC2` (stereo unspecified) belongs 584 s; to `CC(C)c1cc(C(=O)Nc2cccc(F)c2)nc2ccnn12`, 1140 s; to `O=C(Cn1ccc2ccccc21)NCc1ccc(OC(F)(F)F)cc1`, 971 s.
As for `COC[C@@H]1CN(S(=O)(=O)c2cccc(C#N)c2)C[C@H]1c1ccccn1`, the RP-LC retention time worked out at 715 s.
Then `CC1CCN(CCCNC(=O)c2nnc(-c3ccc(S(=O)(=O)N4CCOCC4)cc3)o2)CC1`, with 608 s; and `CCCNc1cc(N2CCC(CCC(=O)N3CCCN(c4ncccn4)CC3)CC2)ncn1`, with 573 s.
Then `COc1cccc(-c2csc(Cc3nc(-c4ccccc4Cl)no3)n2)c1`, with 1150 s.
To `CCN(C(=O)Cn1nc2n(c1=O)CCCCC2)c1ccccc1` belongs 709 s.
Take `O=C(CCNc1c(-c2cccc(F)c2)nc2cnccn12)NCc1ccc(F)cc1F`: the RP-LC retention time was 776 s.
To `COc1ccc(Cc2nc3ccccc3n2CC(=O)N2CCCCCC2)cc1OC` belongs 653 s; to `Cc1cc(C)cc(NC(=O)Nc2nccn(-c3cccc(F)c3)c2=O)c1`, 1030 s.
Then `COC(=O)c1ccc2c(=O)n(-c3ccc(C)cc3)c(N3CCN(c4ccccn4)CC3)nc2c1`, with 728 s; and `CNC(=O)N1CCCC(Cn2cnc3cccnc32)C1` (stereo unspecified), with 574 s; and `CC(C)(C)c1noc(-c2ccnc(-n3cnc(C(=O)NCC4CC4)c3)c2)n1`, with 1110 s.
Then `CCCCN(C)CCNC(=O)C1c2ccccc2C(=O)N2CCc3cc(OC)c(OC)cc3C12` (stereo unspecified), with 633 s.
Take `Cc1ccc(NC(=O)Cn2c(C(C)C)nc3c(c2=O)CCN(Cc2ccccc2)C3)cc1C`: the RP-LC retention time stood at 761 s.
Then `CCc1cc(=O)n(CC(=O)Nc2ccc(C)cc2C)c(N)n1`, with 631 s.
In turn, `Cc1ccc(OCC(=O)N2CCN(c3nc(CN4CCOCC4)cs3)CC2)cc1` yielded an RP-LC retention time of 640 s.
`COc1ccc(C2Cn3cnc(-c4nc(-c5ccc6c(c5)OCO6)no4)c3CO2)cc1` (stereo unspecified) showed an RP-LC retention time of 1000 s.
To `Cc1ccc(-c2csc(-c3cc4c([nH]c3=O)CC(C)(C)CC4=O)n2)cc1` belongs 994 s.
To `Cc1noc(C)c1COc1ccccc1CN1CCC2(CCC2O)CC1` (stereo unspecified) belongs 621 s; to `O=C(c1ccoc1)N1CCC(F)(C(=O)NCC2CC2)CC1`, 618 s.
Then `COc1ccc(-c2cn3ccn(-c4cccc(F)c4)c(=O)c3n2)cc1`, with 821 s.
In turn, `CNC(=O)C1CCCN(c2nc3ncn(CC(=O)Nc4ccc5c(c4)OCCO5)c(=O)c3s2)C1` (stereo unspecified) registered an RP-LC retention time of 627 s.
For `Cc1ccc(NC(=O)Cn2nc(N(C)C)c3ccccc3c2=O)cc1`, the RP-LC retention time came out at 857 s.
Then `COc1ccc(CNC(=O)c2cn3cc(Cl)ccc3n2)cc1`, with 811 s.
To `COc1ccc(OC)c(NC(=O)N2CC=C(c3cn(C)c4ncccc34)CC2)c1` belongs 882 s; to `Cc1cc(C)cc(NC(=O)Cn2cccc2-c2nnc(C3CCC3)o2)c1`, 920 s.
Take `Cc1cc(N2CCN(C)CC2)nc2ccc(NC(=S)N3CCC(C)CC3)cc12`: the RP-LC retention time amounted to 604 s.
To `CCOc1ccc(NC(=O)C2CCN(S(C)(=O)=O)c3ccccc3O2)cc1` (stereo unspecified) belongs 877 s; to `CCn1cnc(S(=O)(=O)N2CCC(C(=O)N3CCc4ccccc4C3)CC2)c1`, 729 s; to `CC1(O)CCOC2(CCN(Cc3cccc4[nH]ccc34)CC2)C1` (stereo unspecified), 589 s.
To `CCCNC(=O)c1ccc(-c2ccc(N3CCSCC3)nc2)cc1` belongs 666 s; to `CC(C(=O)N1CCN(c2cc(-c3ccc(Cl)cc3)[nH]n2)CC1)c1ccccc1` (stereo unspecified), 921 s; to `CCc1nc(OCC(=O)NCc2ccccc2Cl)c2c(C)c(C)oc2n1`, 1020 s.
With `Cn1cc(C2=CCN(C(=O)Nc3ccc(F)cc3F)CC2)c2cccnc21`, the RP-LC retention time was 792 s.
Then `CCN1C(=O)C(C)(C(=O)NCc2ccc(C)cc2)Oc2cccnc21` (stereo unspecified), with 912 s; and `CCc1nc(-c2cccc(-c3noc(COc4cccc(C)c4)n3)c2)cs1`, with 1390 s.
Then `Cc1cc(-c2nc3ccccc3s2)ccc1N`, with 880 s.
To `Cc1cc(C)n(-c2nc(C)c(C(=O)Nc3ccc(F)cc3)s2)n1` belongs 1060 s.
`Cc1ccc(Cn2cc(-c3ccncc3)cc2C(=O)NCc2ccc(C)o2)cc1`: the RP-LC retention time was determined as 734 s.
Then `Cc1nc(-c2ccccc2)nc2c1CCC(=O)N2C(C)C`, with 1060 s; and `CCN(CC)S(=O)(=O)c1cc(-c2nc(C(C)C)cs2)sc1C`, with 1270 s.
To `Cc1nn(S(=O)(=O)N(C)C)c(C)c1Br` belongs 881 s; to `COc1cccc(C2CC(c3ccc4c(c3)OCO4)=NC3(CCN(C(C)C)CC3)N2)c1O` (stereo unspecified), 599 s; to `C/C(=C\C(=O)Nc1ccccc1C(=O)O)c1ccc2ccccc2c1`, 1150 s.
Then `CCCS(=O)(=O)N(C)C1CCc2nn(Cc3ccccc3)c(=O)n2CC1` (stereo unspecified), with 755 s; and `CCn1ccc2c(cc(C(=O)Nc3cccc(F)c3)n2C)c1=O`, with 768 s; and `O=C(Cn1c(=O)nc(-c2ccccc2)c2cc(Cl)ccc21)N1CCN(c2ccccn2)CC1`, with 646 s.
As to `CCOc1nc2ccccc2nc1N1CCCC(C(=O)N2CCN(c3ccccc3F)CC2)C1` (stereo unspecified), the RP-LC retention time was 1330 s.
The compound `O=C(c1csc(-c2ccc(N3CCCC3)nc2)n1)N1CCCCCC1` gave an RP-LC retention time of 937 s.
Then `Cc1ccc(Nc2nc(-c3ccc(C)cc3C)cs2)nc1`, with 965 s.
Then `CC1CCN(S(=O)(=O)c2ccc(-c3nnc(C(=O)NCCc4cccs4)o3)cc2)CC1`, with 1060 s; and `CCOc1ccccc1-c1noc(-c2nn(-c3ccc(C)cc3)ccc2=O)n1`, with 923 s; and `O=C(O)CNC(=O)c1c(O)c2ccccc2n(Cc2ccccc2)c1=O`, with 989 s.
`CCNC(=O)N1CCCC(c2cccc(C(=O)NCc3ccc(F)cc3F)c2)C1` (stereo unspecified): the RP-LC retention time came out at 804 s.
Turning to `Cc1ccc(NC(=O)Cn2c(=O)n(-c3ccc(F)cc3)c(=O)c3c2cc(C)n3C)c(Cl)c1`, the RP-LC retention time stood at 946 s.
Then `CCCCN(C)C(=O)Cn1c(C(C)NC(=O)c2ccco2)nc2ccccc21` (stereo unspecified), with 655 s.
To `Cn1c(=O)c(N2CCC(NC(=O)NCc3ccccc3)CC2)nc2ccccc21` belongs 799 s; to `C=CCN(c1ccccc1)c1nc(C(=O)OCC)nc2ccccc12`, 1000 s; to `Cn1ncc2c3ccccc3n(CC(=O)NCCC3=CCCCC3)c2c1=O`, 904 s.
`Cc1cccc2c(=O)n(C3CCN(C(=O)Nc4ccc(F)cc4F)CC3)cnc12`: the RP-LC retention time is 770 s.
To `Cc1ccc(CNC(=O)C2(C)CCCN(C(=O)Nc3cccc(Br)c3)C2)cc1` (stereo unspecified) belongs 1070 s.
Then `CCCn1cc(CCNS(=O)(=O)c2ccc(C(C)(C)C)cc2)c2cccnc21`, with 1070 s; and `Cc1cc(=O)n2c3ccccc3n(CC(O)CN3CCN(c4ccccc4)CC3)c2c1C#N` (stereo unspecified), with 670 s.
Then `Cc1cnc(C2CCC2)n1CC1CCN(C(=O)C2(c3ccccc3)CC2)CC1`, with 592 s; and `Cc1ccc(N2CCN(C(=O)c3cn4cccc(C)c4n3)CC2)cc1`, with 682 s.
Consider `Cn1ncn2cc(S(=O)(=O)NCc3ccccc3Cl)cc2c1=O`, for which the RP-LC retention time worked out at 792 s.
To `CC(=O)c1ccc(NC(=O)COc2cc(C)nc(-c3ccc(F)cc3)n2)cc1` belongs 938 s; to `COCCn1cc(CCNC(=O)Nc2ccc(C)c(F)c2)c2cccnc21`, 772 s.
Then `CCC(CC)C(=O)N1CCCN(C2=NS(=O)(=O)C(c3ccc(F)cc3)=C2C)CC1`, with 811 s.
`COc1cccc(-c2ccnc3nc(CCc4ccccc4)nn23)c1` came in with an RP-LC retention time of 970 s.
Then `CCn1cc(-c2ccc(Cl)cc2)cc1C(=O)N(C)C`, with 957 s; and `CCCn1ccc2sc(C)c(C(=O)NC(C)c3ccc(F)cc3)c2c1=O` (stereo unspecified), with 994 s; and `CCCNC(=O)CC1Sc2ncccc2N(CCC)C1=O` (stereo unspecified), with 683 s.
To `O=C(CCn1cnc2cc(S(=O)(=O)N3CCCC3)ccc21)N1CCN(c2ccccn2)CC1` belongs 576 s; to `Cn1ccc2c(cc(C(=O)NCc3cccc(Cl)c3)n2C)c1=O`, 724 s.

For the origin of these results see the METLIN SMRT retention time set (Domingo-Almenara et al. 2019).
